Measurements published in patent US7745576B2, “Polypeptides having antimicrobial activity and polynucleotides encoding same” (Novozymes Adenium Biotech A/S, priority 2005, dated 2010).

Legend:
Type in all cases: cell-based
[1] = tested on: Pseudomonas aeruginosa ATCC 27853; test: MIC, NCCLS/CLSI M7-A6 dilution susceptibility test; details: average of two independent evaluations
Protocol: (§1) The antimicrobial peptide shown as amino acids 1 to 21 of SEQ ID NO: 2 was prepared synthetically. The Minimal Inhibitory Concentration (MIC) was determined to test for the antimicrobial activity of Arenicin following the NCCLS guidelines from CLSI (Clinical and Laboratory Standards Institute; formerly known as National Committee for Clinical and Laboratory Standards)—protocol M7-A6, Vol. 20, No. 2: Methods for Dilution Antimicrobial Susceptibility Tests for Bacteria That Grow Aerobically.
(§2) The antimicrobial peptide of the invention was tested against 12 bacterial strains obtained from the American Type Culture Collection (ATCC). The results in Table 1 are average values of two independent evaluations.

[2] = tested on: Shigella sonnei ATCC 11060; test: MIC, NCCLS/CLSI M7-A6 dilution susceptibility test; details: average of two independent evaluations
Protocol: as §1, §2

[3] = tested on: Enterobacter aerogenes ATCC 13048; test: MIC, NCCLS/CLSI M7-A6 dilution susceptibility test; details: average of two independent evaluations
Protocol: as §1, §2

[4] = tested on: Moraxella catarrhalis ATCC 25238; test: MIC, NCCLS/CLSI M7-A6 dilution susceptibility test; details: average of two independent evaluations
Protocol: as §1, §2

[5] = tested on: Escherichia coli ATCC 25922; test: MIC, NCCLS/CLSI M7-A6 dilution susceptibility test; details: average of two independent evaluations
Protocol: as §1, §2

[6] = tested on: Enterobacter cloacae ATCC 13047; test: MIC, NCCLS/CLSI M7-A6 dilution susceptibility test; details: average of two independent evaluations
Protocol: as §1, §2

[7] = tested on: Aeromonas salmonicida ATCC 14174; test: MIC, NCCLS/CLSI M7-A6 dilution susceptibility test; details: average of two independent evaluations
Protocol: as §1, §2

[8] = tested on: Stenotrophomonas maltophlila ATCC 13637; test: MIC, NCCLS/CLSI M7-A6 dilution susceptibility test; details: average of two independent evaluations
Protocol: as §1, §2

[9] = tested on: Citrobacter freundii ATCC 8090; test: MIC, NCCLS/CLSI M7-A6 dilution susceptibility test; details: average of two independent evaluations
Protocol: as §1, §2

[10] = tested on: Escherichia coli ATCC 25404; test: MIC, NCCLS/CLSI M7-A6 dilution susceptibility test; details: average of two independent evaluations
Protocol: as §1, §2

[11] = tested on: Pseudomonas aeruginosa ATCC 9027; test: MIC, NCCLS/CLSI M7-A6 dilution susceptibility test; details: average of two independent evaluations
Protocol: as §1, §2

[12] = tested on: Acinetobacter iwoffii ATCC 15309; test: MIC, NCCLS/CLSI M7-A6 dilution susceptibility test; details: average of two independent evaluations
Protocol: as §1, §2

[13] = tested on: Pichia pastoris ATCC 20864; test: MIC against clinical fungi, PD broth dilution; details: 30° C., approximately 40 hours
Protocol: (§3) Minimal inhibitory concentrations of Arenicin against yeasts and fungi were determined essentially as described by NCCLS/CLSI (clinical and laboratory standards institute).
(§4) In summary, fungal or yeasts suspension of approximately 1 McFarland unit was diluted 1:100 in PD broth (8 g/L potato dextrose) and growth was assayed against serial 2-fold dilutions of Arenicin (0.03-32 micrograms/mL). Assay plates were incubated at 25-27° C. for Candida albicans, Candida tropicalis, Cryptococcus neoformans, Trichophyton mentagrophytes and Epidermophyton floccosum, and at 30° C. for Candida glabrata, Pichia pastoris, Saccharomyces cerevisiae and Aspergillus niger. Growth was recorded visually (naked eye, oblique illumination) after approximately 40 hours of incubation.

[14] = tested on: Cryptococcus neoformans DSM 11959; test: MIC against clinical fungi, PD broth dilution; details: 25-27° C., approximately 40 hours
Protocol: as §3, §4

[15] = tested on: Trichophyton mentagrophytes DSM 4870; test: MIC against clinical fungi, PD broth dilution; details: 25-27° C., approximately 40 hours
Protocol: as §3, §4

[16] = tested on: Candida albicans ATCC 28517; test: MIC against clinical fungi, PD broth dilution; details: 25-27° C., approximately 40 hours
Protocol: as §3, §4

[17] = tested on: Candida tropicalis DSM 11953; test: MIC against clinical fungi, PD broth dilution; details: 25-27° C., approximately 40 hours
Protocol: as §3, §4

[18] = tested on: Pichia pastoris ATCC 201178; test: MIC against clinical fungi, PD broth dilution; details: 30° C., approximately 40 hours
Protocol: as §3, §4

[19] = tested on: Aspergillus niger ATCC9642; test: MIC against clinical fungi, PD broth dilution; details: 30° C., approximately 40 hours
Protocol: as §3, §4

[20] = tested on: Saccharomyces cerevisiae DSM 1333; test: MIC against clinical fungi, PD broth dilution; details: 30° C., approximately 40 hours
Protocol: as §3, §4

[21] = tested on: Candida albicans ATCC 18804; test: MIC against clinical fungi, PD broth dilution; details: 25-27° C., approximately 40 hours
Protocol: as §3, §4

[22] = tested on: Candida glabrata DSM 11226; test: MIC against clinical fungi, PD broth dilution; details: 30° C., approximately 40 hours
Protocol: as §3, §4

[23] = tested on: Candida albicans ATCC 10231; test: MIC against clinical fungi, PD broth dilution; details: 25-27° C., approximately 40 hours
Protocol: as §3, §4

With “Arenicin: antimicrobial polypeptide shown as amino acids 1 to 21 of SEQ ID NO: 2 (Arenicola marina), prepared synthetically (MGYSMNIALVYATVLIGVLHV; listed as Arenicola marina)” as the substance, how does the MIC [1] read?
Its MIC is 0.5 microgram/mL.

What about the MIC [2] of the same substance?
Its MIC is 0.5 microgram/mL.

What about the MIC [3] of the same substance?
Its MIC is 1 microgram/mL.

What about the MIC [4] of the same substance?
The MIC was less than 0.06 microgram/mL.

And the MIC [5]?
The MIC was 0.25 microgram/mL.

What about the MIC [6] of the same substance?
Its MIC is 1 microgram/mL.

And the MIC [7]?
Its MIC is 2 micrograms/mL.

And the MIC [8]?
Its MIC is 1 microgram/mL.

And the MIC [9]?
Its MIC is 1 microgram/mL.

And the MIC [10]?
Its MIC is 0.5 microgram/mL.

What about the MIC [11] of the same substance?
The MIC was 1 microgram/mL.

What about the MIC [12] of the same substance?
The MIC was 0.25 microgram/mL.

And the MIC [13]?
Its MIC is 2 micrograms/mL.

What about the MIC [14] of the same substance?
The MIC was 1 microgram/mL.

What about the MIC [15] of the same substance?
Its MIC is 8 micrograms/mL.

What about the MIC [16] of the same substance?
The MIC was 8 micrograms/mL.

What about the MIC [17] of the same substance?
Its MIC is 2 micrograms/mL.

What about the MIC [18] of the same substance?
The MIC was 4 micrograms/mL.

And the MIC [19]?
The MIC was 8 micrograms/mL.

And the MIC [20]?
The MIC was 8 micrograms/mL.

What about the MIC [21] of the same substance?
The MIC was 8 micrograms/mL.

And the MIC [22]?
Its MIC is 16 micrograms/mL.

And the MIC [23]?
Its MIC is 4 micrograms/mL.
